Test systems include DU-145; EKVX; COLO 205; HCT-15; MDA-MB-231; 786-0; SNB-19; OVCAR-3; HT-29; RPMI-8226; MOLT-4; SF-268; SW-620; SN12C; BT-549; CCRF-CEM; UACC-62; IGROV-1; HL-60; HOP-92.
Holding throughout (experiment): NCI-60 cell line screen, 48 h

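Cells were grown in 96-well plates and exposed to each compound for 48 hours at five concentrations; endpoints were interpolated linearly between bracketing concentrations, or set to the highest concentration if not reached. GI50 is the concentration that inhibits growth by half.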 Active and inactive are the calls of the source. Rule as the data show it: active = GI50 up to about 1.1 µM and inactive = higher.

Results on twelve compounds are retold here after ChEMBL document CHEMBL1201862, “PubChem BioAssay data set” (2004).

On to `NC(C(=O)OC(=O)c1ccccc1)C(=O)OC(=O)c1ccccc1`, for which the GI50 with DU-145 is > 100 µM (inactive); with EKVX, > 100 µM (inactive); with COLO 205 it was > 100 µM (inactive); with HCT-15 it was over 100 µM; in the test on MDA-MB-231, > 100 µM (inactive); in the test with 786-0 it was > 100 µM (inactive). The GI50 with SNB-19, in the test on OVCAR-3, in the test with HT-29, in the test on RPMI-8226, in the test with MOLT-4 and in the test on SF-268 was > 100 µM (inactive) throughout. For the same compound, the GI50 in the test with SW-620, in the test with SN12C, in the test with BT-549 and in the test with CCRF-CEM was > 100 µM (inactive) in each case.
Regarding `c1ccc(-c2cc(-c3cccs3)c(-c3cccs3)s2)cc1`, the GI50 was > 100 µM (inactive) in the test on UACC-62; 64 µM (inactive) with DU-145; 81.8 µM (inactive) in the test with EKVX; 47.3 µM (inactive) in the test with COLO 205; 22.8 µM in the test with HCT-15; > 100 µM (inactive) in the test on IGROV-1. Besides, the GI50 with MDA-MB-231 was 29.9 µM (inactive); with 786-0 it was 50 µM (inactive); in the test with HL-60, 25.5 µM (inactive); in the test on OVCAR-3, 56.2 µM (inactive); in the test with HT-29, 55.7 µM (inactive); in the test with RPMI-8226 it was 31.8 µM (inactive). Also, the GI50 with MOLT-4 was 21.2 µM (inactive); in the test with SF-268 it was > 100 µM (inactive); with HOP-92 it was > 100 µM (inactive); in the test with SW-620 it was 33.7 µM (inactive); with SN12C, 85.9 µM (inactive); in the test with CCRF-CEM, 23.7 µM (inactive).
Consider `O=C1CCCC2=C1CC1=C(CCCC1=O)N2c1cccc([N+](=O)[O-])c1`, for which the GI50 in the test with UACC-62 was > 100 µM (inactive); in the test on EKVX, > 100 µM (inactive); in the test with HCT-15, over 100 µM; with IGROV-1 it was > 100 µM (inactive); in the test on 786-0, > 100 µM (inactive); in the test with HL-60 it was > 100 µM (inactive). Also, the GI50 in the test with SNB-19, with OVCAR-3, with HT-29, in the test with RPMI-8226, with MOLT-4 and in the test on SF-268 was > 100 µM (inactive) in each case. In addition, the GI50 with SW-620, with SN12C, in the test on BT-549 and with CCRF-CEM was > 100 µM (inactive) in each case.
Take `COC(=O)c1ccc(/C=C2\Oc3cc(O)ccc3C2=O)cc1`: the GI50 is > 100 µM (inactive) in the test with UACC-62; > 100 µM (inactive) with DU-145; 49.2 µM (inactive) with EKVX; > 100 µM (inactive) with COLO 205; 53.3 µM in the test on HCT-15; > 100 µM (inactive) in the test on IGROV-1. Besides, the GI50 in the test with MDA-MB-231 is 65.9 µM (inactive); with 786-0 it was > 100 µM (inactive); with HL-60, 44.2 µM (inactive); with SNB-19, 69.8 µM (inactive); in the test with OVCAR-3, 53.3 µM (inactive); in the test with RPMI-8226 it was 29.4 µM (inactive). The GI50 in the test on MOLT-4 was 43.7 µM (inactive); in the test on SF-268 it was 66.1 µM (inactive); in the test with SW-620 it was 78.2 µM (inactive); in the test on SN12C, 53.8 µM (inactive); in the test with BT-549 it was 39.8 µM (inactive); in the test with CCRF-CEM, 38.2 µM (inactive).
Regarding `COc1cccc2c1OC1c3ccccc3OCC1C2` (stereo not given), the GI50 in the test with UACC-62 was > 100 µM (inactive); in the test with DU-145, > 100 µM (inactive); in the test on EKVX, 44.2 µM (inactive); with COLO 205, > 100 µM (inactive); in the test on HCT-15, over 100 µM; with IGROV-1 it was 41.1 µM (inactive). Further, the GI50 was > 100 µM (inactive) in the test on MDA-MB-231; > 100 µM (inactive) in the test with 786-0; > 100 µM (inactive) with OVCAR-3; > 100 µM (inactive) with HT-29; > 100 µM (inactive) in the test with RPMI-8226; 96.2 µM (inactive) in the test on MOLT-4. For the same compound, the GI50 in the test with SF-268 was > 100 µM (inactive); in the test with SW-620 it was > 100 µM (inactive); in the test on SN12C it was > 100 µM (inactive); in the test on BT-549, 62.2 µM (inactive); in the test with CCRF-CEM it was 42.8 µM (inactive).
With `N#C/C(C(=S)NCc1ccccc1)=C(/N)N1CCCC1`, the GI50 with UACC-62 was > 100 µM (inactive); in the test on DU-145, > 100 µM (inactive); in the test with EKVX, > 100 µM (inactive); with COLO 205, > 100 µM (inactive); in the test on HCT-15 it was over 100 µM; in the test with IGROV-1, > 100 µM (inactive). Also, the GI50 in the test with MDA-MB-231, in the test with 786-0, with HL-60, with SNB-19, in the test on OVCAR-3 and with HT-29 was > 100 µM (inactive) each time. The GI50 in the test on RPMI-8226 is > 100 µM (inactive); in the test on MOLT-4 it was > 100 µM (inactive); in the test on SF-268, > 100 µM (inactive); in the test on HOP-92, 44.9 µM (inactive); in the test on SW-620, > 100 µM (inactive); in the test with SN12C, > 100 µM (inactive). Besides, the GI50 with CCRF-CEM is > 100 µM (inactive).
`C=C(C)C1Cc2c(cc(OC)c3c(=O)c4cccc(O)c4oc23)O1` (stereo not given): the GI50 with UACC-62 was 18 µM (inactive); with DU-145, 45.8 µM (inactive); with EKVX, > 100 µM (inactive); with COLO 205, 56.9 µM (inactive); with HCT-15, 47.6 µM; in the test with IGROV-1 it was 18.4 µM (inactive). For the same compound, the GI50 with MDA-MB-231 is 23.9 µM (inactive); in the test with 786-0 it was 18.9 µM (inactive); in the test on HL-60 it was 39.9 µM (inactive); in the test with SNB-19, 26.3 µM (inactive); in the test on HT-29, 67.1 µM (inactive); in the test with MOLT-4, > 100 µM (inactive). Moreover, the GI50 in the test on SF-268 was 20.4 µM (inactive); with SW-620 it was 53.1 µM (inactive); in the test with SN12C it was 28.6 µM (inactive); with BT-549 it was 17.9 µM (inactive); in the test on CCRF-CEM it was 74.6 µM (inactive).
With `Cn1cc(S(=O)(=O)NC(=O)Nc2ccc(Cl)cc2)c(=O)c2ccc(F)cc21`, the GI50 in the test with UACC-62 was 3.01 µM (inactive); with DU-145, > 100 µM (inactive); in the test with EKVX, > 100 µM (inactive); with COLO 205 it was > 100 µM (inactive); with HCT-15, over 100 µM; with IGROV-1 it was > 100 µM (inactive). For the same compound, the GI50 in the test with MDA-MB-231, with 786-0, with HL-60, in the test on SNB-19, with HT-29 and in the test on RPMI-8226 was > 100 µM (inactive) in each case. For the same compound, the GI50 in the test with MOLT-4, in the test with SF-268, in the test on HOP-92, in the test on SW-620, in the test with SN12C and with CCRF-CEM was > 100 µM (inactive) throughout.
Turning to `O=C(Nc1ccc(Cl)cc1)NS(=O)(=O)c1coc2cc(F)ccc2c1=O`, the GI50 with UACC-62 was 26.2 µM (inactive); in the test on EKVX, > 100 µM (inactive); with COLO 205, > 100 µM (inactive); with HCT-15, 19.9 µM; in the test with IGROV-1, > 100 µM (inactive); in the test on MDA-MB-231, > 100 µM (inactive). The GI50 in the test on 786-0, in the test with SNB-19, in the test with OVCAR-3, in the test on HT-29, in the test on MOLT-4 and in the test with SF-268 was > 100 µM (inactive) throughout. The GI50 was > 100 µM (inactive) with SW-620, > 100 µM (inactive) in the test on SN12C, > 100 µM (inactive) in the test on BT-549 and 86.3 µM (inactive) in the test with CCRF-CEM.
Consider `CCOc1ccccc1NC(=O)C(=O)C(/C(=N/N)C(=O)OC)c1nc2ccc([N+](=O)[O-])cc2nc1O` (stereo not given), for which the GI50 in the test with UACC-62 was > 100 µM (inactive); in the test on EKVX it was 97.5 µM (inactive); with HCT-15, over 100 µM; in the test with IGROV-1 it was 28.5 µM (inactive); in the test on MDA-MB-231, > 100 µM (inactive); with 786-0 it was > 100 µM (inactive). Also, the GI50 is > 100 µM (inactive) with HL-60; > 100 µM (inactive) in the test on OVCAR-3; > 100 µM (inactive) with HT-29; > 100 µM (inactive) in the test with RPMI-8226; 59.8 µM (inactive) with MOLT-4; > 100 µM (inactive) with SF-268. Moreover, the GI50 in the test on HOP-92 is 46 µM (inactive); in the test with SW-620, > 100 µM (inactive); in the test on SN12C it was > 100 µM (inactive); with BT-549, > 100 µM (inactive); in the test with CCRF-CEM, > 100 µM (inactive).
Turning to `O=C1c2ccccc2C(=O)C2NC(CCCCCSSCCCCCC3=NC4C(=O)c5ccccc5C(=O)C4N3)=NC12` (stereo not given), the GI50 with DU-145 was > 100 µM (inactive); in the test on EKVX, > 100 µM (inactive); in the test with HCT-15, 40.6 µM; in the test with IGROV-1, 12.9 µM (inactive); in the test on MDA-MB-231 it was 96.2 µM (inactive); with 786-0 it was 28.8 µM (inactive). Also, the GI50 is > 100 µM (inactive) in the test with HL-60; > 100 µM (inactive) in the test on OVCAR-3; > 100 µM (inactive) with HT-29; > 100 µM (inactive) in the test with RPMI-8226; 3.8 µM (inactive) with MOLT-4; 27.3 µM (inactive) with SF-268. In addition, the GI50 with HOP-92 was 5.56 µM (inactive); with SW-620 it was 90.8 µM (inactive); with CCRF-CEM, > 100 µM (inactive).
`CCOC(=O)c1ccc(-n2nnc(C(N)=O)c2O)cc1`: the GI50 with UACC-62 is > 100 µM (inactive); in the test with DU-145, > 100 µM (inactive); with EKVX, > 100 µM (inactive); in the test on COLO 205 it was > 100 µM (inactive); in the test on HCT-15, over 100 µM; in the test on IGROV-1 it was > 100 µM (inactive). Moreover, the GI50 in the test on MDA-MB-231, in the test with 786-0, with SNB-19, in the test on OVCAR-3, with HT-29 and with RPMI-8226 was > 100 µM (inactive) each time. Also, the GI50 in the test with MOLT-4, in the test with SF-268, in the test with SW-620, in the test on SN12C, in the test with BT-549 and with CCRF-CEM was > 100 µM (inactive) in each case.
